# From patent US12187681B2 (Shanghai East Hospital, priority 2019, dated 2025)
# What was measured:
# [1] = biological target: T1, hERG (human ether-a-go-go related gene potassium channel, KCNH2) (Homo sapiens, UniProt Q12809); experiment: hERG channel whole-cell patch clamp (Ion Channel Activity Measurement); assay type: cell-based; details: human, room temperature; for inhibition at 1 μM: pH 7.4, 1 μM test article; for inhibition at 10 μM: pH 7.4, 10 μM test article
# T1 construct: expressed in transfected cells; host or cells: HEK293
# T1 sequence (Q12809 whole entry): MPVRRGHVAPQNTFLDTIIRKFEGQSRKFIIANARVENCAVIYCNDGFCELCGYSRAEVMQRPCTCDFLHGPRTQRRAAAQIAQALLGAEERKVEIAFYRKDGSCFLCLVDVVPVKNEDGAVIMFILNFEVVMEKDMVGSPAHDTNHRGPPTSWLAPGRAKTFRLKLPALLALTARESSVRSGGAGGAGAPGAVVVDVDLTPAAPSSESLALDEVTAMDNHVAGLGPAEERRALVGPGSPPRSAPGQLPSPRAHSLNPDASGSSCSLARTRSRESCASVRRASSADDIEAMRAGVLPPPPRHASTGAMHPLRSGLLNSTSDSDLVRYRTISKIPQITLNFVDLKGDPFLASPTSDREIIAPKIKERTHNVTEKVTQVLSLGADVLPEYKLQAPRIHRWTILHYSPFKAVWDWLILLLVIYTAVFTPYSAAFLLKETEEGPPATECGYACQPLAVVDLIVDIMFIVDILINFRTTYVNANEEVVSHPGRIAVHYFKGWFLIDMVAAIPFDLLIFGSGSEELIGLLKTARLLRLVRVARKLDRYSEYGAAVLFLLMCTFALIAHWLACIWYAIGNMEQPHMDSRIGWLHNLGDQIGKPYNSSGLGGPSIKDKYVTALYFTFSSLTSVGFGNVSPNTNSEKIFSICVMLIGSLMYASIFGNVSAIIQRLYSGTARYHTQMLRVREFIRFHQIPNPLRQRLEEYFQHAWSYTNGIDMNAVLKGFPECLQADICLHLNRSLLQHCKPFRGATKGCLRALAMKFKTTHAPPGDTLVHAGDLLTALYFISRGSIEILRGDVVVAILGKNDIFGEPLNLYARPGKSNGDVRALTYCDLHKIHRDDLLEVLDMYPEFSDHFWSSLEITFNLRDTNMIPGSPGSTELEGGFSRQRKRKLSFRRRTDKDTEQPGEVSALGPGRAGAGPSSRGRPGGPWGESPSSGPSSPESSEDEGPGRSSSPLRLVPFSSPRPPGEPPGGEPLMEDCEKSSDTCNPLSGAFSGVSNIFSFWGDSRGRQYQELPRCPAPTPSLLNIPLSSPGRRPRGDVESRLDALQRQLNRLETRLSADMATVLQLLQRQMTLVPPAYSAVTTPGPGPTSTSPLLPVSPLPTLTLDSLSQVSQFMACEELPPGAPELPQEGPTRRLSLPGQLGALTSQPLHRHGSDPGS
# Method: HEK293 cell line expressing the human ERG (ether-a-go-go related gene) potassium channel (Potassium voltage-gated channel subfamily H member 2). cDNA strictly similar to GenBank accession number: NM_000238
# (§1) Cells expressing channels were cultured in medium supplemented with 20% FBS in HAM'S F12 culture dish. Cells grew in a humidified incubator at 37° C. under 5% carbon dioxide. To passage cells, remove poor medium and rinse the cells once with PBS 1X. […] Place plate on a 37° C. warming incubator 5 min. As soon as cells are detached, add 5 ml of 37° C. complete medium. Draw cell suspension into a sterile pipet and homogenize cells gently to dissociate cells aggregates. Amplify or maintain the cells by seeding 2.5*105 cells in a 6 cm dish (final volume: 5 ml). To maintain electrophysiological performances, cell density must not exceed 80%. On the day before patch clamp experiment, 3*103 cells were seeded on coverslips in the 24-well plate and incubated at 37° C. in 5% carbon dioxide.
# (§2) Glass pipette (BF150-86-10, Sutter Instruments) was made by puller (P97, Sutter Instruments). The glass pipette was manipulated using Micro-manipulator (Carm-C-S, MCI Instruments) under the microscope (AE31EF-INV, Motic). After touching the cell, a slight suction was applied to achieve high seal (GΩ). Fast capacitance (in pF) compensation was made after high seal was achieved; after achieving high seal, the membrane was broken, Cell capacitance (in pF) compensation was made from whole-cell capacitance compensation after the whole cell mode was achieved. No leak subtraction was made.
# (§3) Cell was incubated with the test article for 5 minutes, or until the current reached a steady-state level. Multiple concentrations of test article were tested. The test articles were applied gradually from low to high concentration. The test and control solutions were flown into a recording chamber mounted on the stage of an inverted microscope via a gravity-fed solution delivery system. During the experiment, solutions were withdrawn from the recording chamber by vacuum aspiration. Each concentration was tested at multiple times. Each cell acted as its own control. All tests were performed at room temperature (23-25° C.).
# hERG current was recorded under a holding potential at −80 mV and then depolarized to 30 mV for 2.5 seconds to activate the hERG channel. The peak tail currents were induced by a repolarizing pulse to −50 mV for 4 seconds. This voltage-clamp pulse protocol was performed continuously during the experiment. An interpulse interval of 10 seconds allowed recovery from inactivation. An interpulse of −50 mV test for 0.5 second before 30 mV depolarized step was included for leak current correction
# [2] = biological target: T2, CaV1.2 (L-type voltage-dependent calcium channel; CACNA1C, CACNB2, CACNA2D1) (Homo sapiens, UniProt Q13936); experiment: CaV1.2 channel whole-cell patch clamp (Ion Channel Activity Measurement); assay type: cell-based; details: human, room temperature; for inhibition at 5 min, 1 μM: pH 7.4, 1 μM test article; for inhibition at 5 min, 10 μM: pH 7.4, 10 μM test article, read-out: CaV 1.2 10 μM (ion-channel inhibition)
# T2 construct: expressed in transfected cells; host or cells: CHO
# T2 sequence (Q13936 1-2138 isoform Q13936-12): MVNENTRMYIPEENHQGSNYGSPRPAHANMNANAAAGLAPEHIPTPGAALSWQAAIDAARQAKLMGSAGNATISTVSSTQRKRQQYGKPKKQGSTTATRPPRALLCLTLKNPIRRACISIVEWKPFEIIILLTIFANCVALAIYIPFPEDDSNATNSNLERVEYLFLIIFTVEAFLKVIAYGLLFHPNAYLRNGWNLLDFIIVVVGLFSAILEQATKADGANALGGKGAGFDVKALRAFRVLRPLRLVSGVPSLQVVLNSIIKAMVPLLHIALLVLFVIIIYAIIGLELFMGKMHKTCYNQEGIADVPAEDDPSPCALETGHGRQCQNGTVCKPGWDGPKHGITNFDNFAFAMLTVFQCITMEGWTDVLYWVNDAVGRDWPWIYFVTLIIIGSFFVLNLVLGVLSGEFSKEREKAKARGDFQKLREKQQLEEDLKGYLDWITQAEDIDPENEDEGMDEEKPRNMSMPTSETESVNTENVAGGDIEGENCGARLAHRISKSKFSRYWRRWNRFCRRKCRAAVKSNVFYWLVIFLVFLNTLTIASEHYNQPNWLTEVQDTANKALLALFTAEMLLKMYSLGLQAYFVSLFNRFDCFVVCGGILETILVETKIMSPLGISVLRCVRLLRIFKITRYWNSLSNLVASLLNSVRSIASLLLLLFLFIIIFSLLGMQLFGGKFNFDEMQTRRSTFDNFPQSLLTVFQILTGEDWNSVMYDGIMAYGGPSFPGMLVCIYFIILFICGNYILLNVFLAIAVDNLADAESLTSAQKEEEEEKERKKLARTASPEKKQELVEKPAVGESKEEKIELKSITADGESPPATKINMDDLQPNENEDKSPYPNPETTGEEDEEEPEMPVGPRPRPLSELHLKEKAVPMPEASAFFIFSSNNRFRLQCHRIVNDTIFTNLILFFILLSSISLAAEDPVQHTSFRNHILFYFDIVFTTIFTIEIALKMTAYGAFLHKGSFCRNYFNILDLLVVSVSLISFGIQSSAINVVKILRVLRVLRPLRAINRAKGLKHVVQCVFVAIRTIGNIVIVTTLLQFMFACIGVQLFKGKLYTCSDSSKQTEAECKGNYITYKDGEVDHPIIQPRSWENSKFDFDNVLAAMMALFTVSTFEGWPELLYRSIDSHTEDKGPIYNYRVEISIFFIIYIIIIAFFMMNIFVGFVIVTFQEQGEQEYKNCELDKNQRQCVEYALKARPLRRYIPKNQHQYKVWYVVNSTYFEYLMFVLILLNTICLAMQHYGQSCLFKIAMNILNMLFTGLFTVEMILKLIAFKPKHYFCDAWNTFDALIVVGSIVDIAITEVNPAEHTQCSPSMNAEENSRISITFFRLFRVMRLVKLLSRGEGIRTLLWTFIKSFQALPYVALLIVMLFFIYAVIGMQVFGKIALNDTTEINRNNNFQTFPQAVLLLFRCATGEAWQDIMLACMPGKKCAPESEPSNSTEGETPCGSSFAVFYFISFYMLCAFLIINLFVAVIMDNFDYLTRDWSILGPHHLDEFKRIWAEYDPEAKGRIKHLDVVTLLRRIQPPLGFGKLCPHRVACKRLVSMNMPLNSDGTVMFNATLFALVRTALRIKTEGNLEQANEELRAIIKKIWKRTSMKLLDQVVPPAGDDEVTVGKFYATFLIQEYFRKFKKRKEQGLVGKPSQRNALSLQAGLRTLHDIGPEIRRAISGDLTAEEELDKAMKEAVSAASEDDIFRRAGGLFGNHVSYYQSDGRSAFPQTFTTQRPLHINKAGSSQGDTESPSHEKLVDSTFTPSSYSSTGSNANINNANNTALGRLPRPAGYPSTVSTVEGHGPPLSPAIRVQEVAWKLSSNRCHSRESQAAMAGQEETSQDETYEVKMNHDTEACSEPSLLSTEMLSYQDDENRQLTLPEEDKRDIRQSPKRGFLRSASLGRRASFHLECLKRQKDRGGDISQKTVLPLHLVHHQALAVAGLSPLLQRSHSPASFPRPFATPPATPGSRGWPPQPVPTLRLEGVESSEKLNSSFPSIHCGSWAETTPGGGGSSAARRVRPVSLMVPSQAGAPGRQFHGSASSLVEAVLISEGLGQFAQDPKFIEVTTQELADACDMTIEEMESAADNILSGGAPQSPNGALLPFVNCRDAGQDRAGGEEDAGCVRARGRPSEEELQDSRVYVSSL
# T2 sequence (Q08289 1-605 isoform Q08289-2 partner): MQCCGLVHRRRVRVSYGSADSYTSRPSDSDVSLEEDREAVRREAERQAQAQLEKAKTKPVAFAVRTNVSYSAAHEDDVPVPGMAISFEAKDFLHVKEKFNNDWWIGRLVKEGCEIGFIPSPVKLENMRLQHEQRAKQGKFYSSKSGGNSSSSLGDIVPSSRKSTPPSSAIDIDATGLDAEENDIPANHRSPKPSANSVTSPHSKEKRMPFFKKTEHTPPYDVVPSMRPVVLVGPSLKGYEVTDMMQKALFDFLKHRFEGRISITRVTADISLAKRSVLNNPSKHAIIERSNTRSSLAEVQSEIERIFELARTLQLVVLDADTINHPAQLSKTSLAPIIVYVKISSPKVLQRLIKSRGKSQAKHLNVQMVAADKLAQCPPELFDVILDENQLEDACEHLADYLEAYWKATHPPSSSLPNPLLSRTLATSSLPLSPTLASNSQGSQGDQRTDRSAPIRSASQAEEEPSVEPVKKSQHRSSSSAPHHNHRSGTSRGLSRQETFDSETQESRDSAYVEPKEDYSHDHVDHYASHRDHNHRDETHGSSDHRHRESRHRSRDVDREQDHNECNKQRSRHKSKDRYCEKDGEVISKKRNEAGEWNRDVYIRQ
# T2 sequence (P54289 25-1091 isoform P54289-2 partner limits assumed): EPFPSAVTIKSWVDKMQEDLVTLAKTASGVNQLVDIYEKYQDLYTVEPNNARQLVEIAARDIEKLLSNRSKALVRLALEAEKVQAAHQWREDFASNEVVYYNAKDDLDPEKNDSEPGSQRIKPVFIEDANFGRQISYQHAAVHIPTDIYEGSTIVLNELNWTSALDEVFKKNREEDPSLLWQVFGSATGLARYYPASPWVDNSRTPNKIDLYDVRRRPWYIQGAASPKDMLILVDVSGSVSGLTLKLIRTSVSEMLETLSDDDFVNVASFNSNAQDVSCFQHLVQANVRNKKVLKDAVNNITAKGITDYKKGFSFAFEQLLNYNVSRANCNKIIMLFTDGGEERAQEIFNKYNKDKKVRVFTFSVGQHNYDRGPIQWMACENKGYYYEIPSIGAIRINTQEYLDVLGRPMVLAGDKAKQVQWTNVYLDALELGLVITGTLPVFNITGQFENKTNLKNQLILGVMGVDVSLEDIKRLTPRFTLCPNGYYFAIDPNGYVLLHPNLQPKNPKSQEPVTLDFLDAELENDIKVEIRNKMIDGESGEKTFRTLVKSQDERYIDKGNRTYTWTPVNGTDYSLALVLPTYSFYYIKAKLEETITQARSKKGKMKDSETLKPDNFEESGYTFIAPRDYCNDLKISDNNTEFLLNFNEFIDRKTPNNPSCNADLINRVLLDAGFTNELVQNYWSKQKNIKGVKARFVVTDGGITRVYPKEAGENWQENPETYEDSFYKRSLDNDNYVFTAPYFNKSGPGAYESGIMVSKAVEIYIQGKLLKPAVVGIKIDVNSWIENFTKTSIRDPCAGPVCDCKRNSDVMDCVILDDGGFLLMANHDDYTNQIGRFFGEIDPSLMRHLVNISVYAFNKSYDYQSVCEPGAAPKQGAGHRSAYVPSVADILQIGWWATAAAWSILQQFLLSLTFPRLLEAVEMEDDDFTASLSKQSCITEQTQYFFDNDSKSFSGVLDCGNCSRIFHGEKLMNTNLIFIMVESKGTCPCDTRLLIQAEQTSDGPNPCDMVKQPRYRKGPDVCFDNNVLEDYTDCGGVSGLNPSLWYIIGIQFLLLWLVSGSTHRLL
# T2 sequence (P54289 957-1103 partner limits assumed): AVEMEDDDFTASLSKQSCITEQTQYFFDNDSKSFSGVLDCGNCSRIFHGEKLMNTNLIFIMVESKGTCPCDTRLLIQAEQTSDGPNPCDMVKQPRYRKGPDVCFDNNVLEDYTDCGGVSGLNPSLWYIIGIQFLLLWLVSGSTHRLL
# Method: • CHO cell line stably expressing human calcium channel, voltage-dependent, L type, • CACNA1C: cDNA strictly similar to GenBank accession number: NM_000719 • CACNB2: cDNA strictly similar to GenBank accession number: NM_000724 • CACNA2D1: cDNA strictly similar to GenBank accession number: NM_000722 Iks Channel Cell Line:
# as §1
# Bath solution: 140 mM TEA-C1, 2 mM MgCl2·6H2O, 10 mM CaCl2, 10 mM HEPES, 5 mM D-glucose, pH=7.4 with TEA-OH. Pipette solution: 120 mM CsCl, 1 mM MgCl2·6H2O, 10 mM HEPES, 10 mM EGTA, 0.3 mM Na2-GTP, 4 mM Mg-ATP, pH=7.2 with CsOH.
# as §2, §3
# Cav1.2 current was recorded under a holding potential at −80 mV and then depolarized to +10 mV for 0.3 seconds. This protocol was repeated at 20 s intervals to observe the effect of test articles on the peak of Cav1.2 current.
# [3] = HEK293 cells expressing the human ERG potassium channel
SMILES,"inhibition at 1 μM [1, 3]","inhibition at 10 μM [1, 3]","inhibition at 5 min, 1 μM [2]","inhibition at 5 min, 10 μM [2]",inhibition at 1 μM [1],inhibition at 10 μM [1]
"CCN(CC)CCOc1c(C)cc2ccccc2c1Cc1c(O)c(C)cc2ccccc12 [Compound A108, 1-((2-(2-(diethylamino)ethoxy)-3-methylnaphthalen-1-yl)methyl)-3-methylnaphthalen-2-ol]",< 25%,< 25%,< 25%,25 to 50%,–,–
"CC(C)(O)c1cc2ccccc2c(Cc2c(O)c(C(C)(C)O)cc3ccccc23)c1O [Compound A047, 1,1′-methylenebis(3-(2-hydroxypropan-2-yl)naphthalen-2-ol)]",< 25%,–,< 25%,50 to 75%,–,–
"CCN(CC)CCOc1ccc2ccccc2c1Cc1c(OCc2ccccc2)ccc2ccccc12 [Compound A290, 2-((1-((2-(benzyloxy)naphthalen-1-yl)methyl)naphthalen-2-yl)oxy)-N,N-diethylethan-1-amine]",75 to 100%,75 to 100%,25 to 50%,50 to 75%,–,–
"Oc1ccc2ccccc2c1Cc1c(O)ncc2ccccc12 [Compound A027, 4-((2-hydroxynaphthalen-1-yl)methyl)isoquinolin-3-ol]",< 25%,< 25%,< 25%,25 to 50%,–,–
"c1ccc(COc2ccc3ccccc3c2Cc2c(OCCN3CCCC3)ccc3ccccc23)cc1 [Compound A291, 1-(2-((1-((2-(benzyloxy)naphthalen-1-yl)methyl)naphthalen-2-yl)oxy)ethyl)pyrrolidine]",75 to 100%,–,< 25%,–,–,–
"Oc1c(F)cc2ccccc2c1Cc1c(O)c(F)cc2ccccc12 [Compound A049, 1,1′-methylenebis(3-fluoronaphthalen-2-ol)]",< 25%,50 to 75%,< 25%,50 to 75%,–,–
"O=C(O)c1ccc2c(Cc3c(O)ccc4ccccc34)c(O)ccc2c1 [Compound A114, 6-hydroxy-5-((2-hydroxynaphthalen-1-yl)methyl)-2-naphthoic acid]",< 25%,50 to 75%,< 25%,< 25%,–,–
"O=C(O)c1ccc2ccccc2c1Cc1c(O)ccc2ccccc12 [Compound A106, 1-((2-hydroxynaphthalen-1-yl)methyl)-2-naphthoic acid]",< 25%,< 25%,< 25%,< 25%,–,–
"CCN(CC)CCOc1ccc2nccnc2c1Cc1c(O)ccc2ccccc12 [Compound A168, 1-((6-(2-(diethylamino)ethoxy)quinoxalin-5-yl)methyl)naphthalen-2-ol]",< 25%,< 25%,< 25%,< 25%,–,–
"CCOCOc1ccc2ccccc2c1Cc1c(OCCN2CCCC2)ccc2ccccc12 [Compound A254, 1-(2-((1-((2-(ethoxymethoxy)naphthalen-1-yl)methyl)naphthalen-2-yl)oxy)ethyl)pyrrolidine]",< 25%,75 to 100%,< 25%,50 to 75%,–,–
"CCN(CC)CCNC(=O)c1ccc2ccccc2c1Cc1c(OC)ccc2ccccc12 [Compound A238, N-(2-(diethylamino)ethyl)-1-((2-methoxynaphthalen-1-yl)methyl)-2-naphthamide]",75 to 100%,75 to 100%,25 to 50%,75 to 100%,–,–
"CCN(CC)CCOc1ccc2cc(C(=O)O)ccc2c1Cc1c(O)ccc2cc(C(=O)O)ccc12 [Compound A125, 5-((6-carboxy-2-(2-(diethylamino)ethoxy)naphthalen-1-yl)methyl)-6-hydroxy-2-naphthoic acid]",< 25%,–,< 25%,75 to 100%,–,–
"CCN(CC)CCOc1ccc2ccccc2c1Cc1c(O)c(C)cc2ccccc12 [Compound A098, 1-((2-(2-(diethylamino)ethoxy)naphthalen-1-yl)methyl)-3-methylnaphthalen-2-ol]",25 to 50%,75 to 100%,< 25%,< 25%,–,–
COc1cccc(C2CCNCC2)c1Cc1c(OC)cccc1C1CCNCC1 [Compound A194],–,–,25 to 50%,50 to 75%,< 25%,25 to 50%
"COc1cc2ccccc2c(Cc2c(O)c(OC)cc3ccccc23)c1O [Compound A050, 1,1′-methylenebis(3-methoxynaphthalen-2-ol)]",< 25%,< 25%,< 25%,< 25%,–,–
"Oc1cccc2c1C(c1c(O)ccc3ccccc13)CC2 (stereo not shown) [Compound A079, 1-(7-hydroxy-2,3-dihydro-1H-inden-1-yl)naphthalen-2-ol]",< 25%,75 to 100%,< 25%,50 to 75%,–,–
"COc1cccc(-c2cccnc2)c1Cc1c(O)cccc1-c1cccnc1 [Compound A117-I-1, 2-(2-methoxy-6-(pyridin-3-yl)benzyl)-3-(pyridin-3-yl)phenol]",< 25%,25 to 50%,< 25%,< 25%,–,–
"O=C(O)c1ccc2ccccc2c1Cc1c(C(=O)O)ccc2ccccc12 [Compound A100, 1,1′-methylenebis(2-naphthoic acid)]",< 25%,< 25%,< 25%,< 25%,–,–
"NC(=O)c1ccc2ccccc2c1Cc1c(C(N)=O)ccc2ccccc12 [Compound A101, 1,1′-methylenebis(2-naphthamide)]",< 25%,50 to 75%,< 25%,< 25%,–,–
"Cc1cc2ccccc2c(O)c1Cc1c(C)cc2ccccc2c1O [Compound A035, 2,2′-methylenebis(3-methylnaphthalen-1-ol)]",< 25%,50 to 75%,< 25%,75 to 100%,–,–
"O=C(c1c(O)ccc2ccccc12)c1c(OCCN2CCCC2)ccc2ccccc12 [Compound A234, (2-hydroxynaphthalen-1-yl)(2-(2-(pyrrolidin-1-yl)ethoxy)naphthalen-1-yl)methanone]",75 to 100%,75 to 100%,< 25%,75 to 100%,–,–
"CCN(CC)CC(=O)Nc1ccc2ccccc2c1Cc1c(OC)ccc2ccccc12 [Compound A284, 2-(diethylamino)-N-(1-((2-methoxynaphthalen-1-yl)methyl)naphthalen-2-yl)acetamide]",25 to 50%,–,< 25%,< 25%,–,–
Oc1ccc2ccccc2c1Cn1nc(-c2ccccc2)cc1O [Compound A059],–,–,< 25%,< 25%,< 25%,< 25%
"COc1ccc2ccccc2c1Nc1c([N+](=O)[O-])ccc2ccccc12 [Compound A196, 2-methoxy-N-(2-nitronaphthalen-1-yl)naphthalen-1-amine]",< 25%,< 25%,< 25%,< 25%,–,–
